# Like-named read-outs stand apart in the source and are kept apart here.
# Key:
# [1] = Bioavailability after single dose: sublingual tablets (Examples I-III) versus conventional oral tablets, crossed randomized studies; details: for AUC(0-inf) / AUC(0-t) / Cmax / Tmax / concentration / concentration at 0 min / concentration at 20 min / concentration at 40 min / concentration at 1 h / concentration at 2 h / concentration at 2.5 h / concentration at 4 h / concentration at 6 h / concentration at 8 h / concentration at 10 h / concentration at 12 h / concentration at 24 h: male, human, plasma; for AUC and Cmax, sublingual versus oral: sublingual versus conventional oral tablets
# Experimental: Three studies were carried out, each of them with eight healthy volunteers of the male sex, recruited after information on the nature and characteristics of the principles included in the scope of the study. Each study, composed of two periods of treatment, was carried out according to a crossed and randomized scheme. All individuals received the previously established dose of the active ingredient in the form of conventional oral tablets and sublingual tablets, with a period of detoxication of, at least, seven days between the first and the following administration, according to a previously established randomized list. The sublingual tablets were placed under the tongue until complete dissolution, in correspondence with the venous plexus, while the conventional oral tablets were swallowed unbroken with 150 ml of mineral water. Within the intervals of 0-20-40 minutes, 1-1,5-2-2,5-3-3,5-4-6-8-10-[…] and 24 hours after the treatment, 5 ml of blood were collected.
# [2] = cited from earlier work; for plasmatic concentration peak: 2 mg tablets
Structure (SMILES),AUC(0-inf) [1] [µg·h/mL],AUC(0-t) [1] [µg·h/mL],Cmax [1] [µg/mL],Tmax [1] [min],concentration ([1]; other: sublingual) [µg/mL],concentration at 0 min ([1]; other: sublingual) [µg/mL],concentration at 20 min ([1]; other: sublingual) [µg/mL],concentration at 40 min ([1]; other: sublingual) [µg/mL],concentration at 1 h ([1]; other: sublingual) [µg/mL],concentration at 2 h ([1]; other: sublingual) [µg/mL],concentration at 2.5 h ([1]; other: sublingual) [µg/mL],concentration at 4 h ([1]; other: sublingual) [µg/mL],concentration at 6 h ([1]; other: sublingual) [µg/mL],concentration at 8 h ([1]; other: sublingual) [µg/mL],concentration at 10 h ([1]; other: sublingual) [µg/mL],concentration at 12 h ([1]; other: sublingual) [µg/mL],concentration at 24 h ([1]; other: sublingual) [µg/mL],Tmax ([1]; other: sublingual versus oral) [min],AUC(0-inf) ([1]; po) [µg·h/mL],AUC(0-t) ([1]; po) [µg·h/mL],other results
"O=C1CN=C(c2ccccn2)c2cc(Br)ccc2N1 [BROMAZEPAN, bromazepam]",1.9 ± 0.326,1.16 ± 0.102,0.12 ± 0.0121,45 ± 9,0.0679 ± 0.0061,0,0.0808 ± 0.0113,0.109 ± 0.0221,0.11 ± 0.0152,0.084 ± 0.0057,0.0742 ± 0.0057,0.0634 ± 0.0055,0.0571 ± 0.005,0.0494 ± 0.007,0.0448 ± 0.0062,0.0388 ± 0.0056,0.0335 ± 0.0061,~30,1.76 ± 0.223,1.13 ± 0.0602,"Cmax ([1]; po): 0.125 ± 0.00981 µg/mL; Tmax ([1]; po): 75 ± 22.8 min; concentration ([1]; po): 0.0702 ± 0.0068 µg/mL; concentration at 20 min ([1]; po): 0.069 ± 0.0101 µg/mL; concentration at 40 min ([1]; po): 0.0917 ± 0.0056 µg/mL; concentration at 1 h ([1]; po): 0.117 ± 0.0149 µg/mL; concentration at 2 h ([1]; po): 0.0916 ± 0.0097 µg/mL; concentration at 2.5 h ([1]; po): 0.0772 ± 0.0059 µg/mL; concentration at 4 h ([1]; po): 0.0631 ± 0.0069 µg/mL; concentration at 6 h ([1]; po): 0.0534 ± 0.0048 µg/mL; concentration at 8 h ([1]; po): 0.0491 ± 0.0044 µg/mL; concentration at 10 h ([1]; po): 0.0427 ± 0.0031 µg/mL; concentration at 12 h ([1]; po): 0.0379 ± 0.003 µg/mL; concentration at 24 h ([1]; po): 0.0302 ± 0.0038 µg/mL; AUC and Cmax, sublingual versus oral [1]: comparable"
"CN1C(=O)CN=C(c2ccccc2)c2cc(Cl)ccc21 [DIAZEPAM, diazepam]",–,–,–,–,–,–,–,–,–,–,–,–,–,–,–,–,–,–,–,–,hematological rates after sublingual administration in relation to oral administration ([1]; first hour): definitely higher
"O=C1Nc2ccc(Cl)cc2C(c2ccccc2Cl)=NC1O (stereo not drawn) [LORAZEPAM, lorazepam]",0.621 ± 0.0701,0.452 ± 0.053,0.0569 ± 0.00841,42.6 ± 720,0.0283 ± 0.0042,0,0.0445 ± 0.0059,0.0565 ± 0.0085,0.0479 ± 0.0085,0.0372 ± 0.0077,0.0322 ± 0.0044,0.0256 ± 0.005,0.0228 ± 0.00461,0.0096 ± 0.0037,0.0176 ± 0.0026,0.0145 ± 0.0023,0.0103 ± 0.0011,~30,0.656 ± 0.143,0.454 ± 0.0741,"plasmatic concentration peak ([2]; after oral administration): ~17 ng/mL; plasmatic concentration peak ([2]; after sublingual administration): about 25 ng/ml; absorption of sublingual formulation compared to oral tablets and intramuscular formulation ([2]; during the first 60 minutes, 2 mg): higher; Cmax ([1]; po): 0.0544 ± 0.00498 µg/mL; Tmax ([1]; po): 91.2 ± 29.4 min; concentration ([1]; po): 0.0334 ± 0.0103 µg/mL; concentration at 0 min ([1]; po): 0 µg/mL; concentration at 20 min ([1]; po): 0.0308 ± 0.0094 µg/mL; concentration at 40 min ([1]; po): 0.041 ± 0.0104 µg/mL; concentration at 1 h ([1]; po): 0.0461 ± 0.0079 µg/mL; concentration at 2 h ([1]; po): 0.0473 ± 0.0091 µg/mL; concentration at 2.5 h ([1]; po): 0.039 ± 0.0102 µg/mL; concentration at 4 h ([1]; po): 0.0282 ± 0.0084 µg/mL; concentration at 6 h ([1]; po): 0.0226 ± 0.0057 µg/mL; concentration at 8 h ([1]; po): 0.0196 ± 0.0048 µg/mL; concentration at 10 h ([1]; po): 0.0166 ± 0.0035 µg/mL; concentration at 12 h ([1]; po): 0.0135 ± 0.0023 µg/mL; concentration at 24 h ([1]; po): 0.0106 ± 0.0017 µg/mL; AUC and Cmax, sublingual versus oral [1]: comparable"
